Data from patent publication US20220386606A1, “SPECIFICALLY SUBSTITUTED 3-PHENYL-5-SPIROCYCLOPENTYL-3-PYRROLIN-2-ONES AND THEIR USE AS HERBICIDES” (Bayer Aktiengesellschaft, priority 2019, published 2022).

Assays:
[1] = system: ALOMY; test: Pre-emergence herbicidal action against ALOMY; assay type: in vivo, Alopecurus myosuroides; details: 320 g/ha, scored visually after 3 weeks vs untreated controls
Procedure, shortened: (§1)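 Pre-emergence soil-surface application: WP/EC in water, 600 to 800 L/ha, + 0.2% wetting agent, onto soil-covered seeds in sandy loam. Greenhouse, 3 wk. Visual % activity vs untreated (100% = dead).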

[2] = system: AVEFA; test: Pre-emergence herbicidal action against AVEFA; assay type: in vivo, Avena fatua; details: 320 g/ha, scored visually after 3 weeks vs untreated controls
Procedure, shortened: as §1

[3] = system: DIGSA; test: Pre-emergence herbicidal action against DIGSA; assay type: in vivo, Digitaria sanguinalis; details: 320 g/ha, scored visually after 3 weeks vs untreated controls
Procedure, shortened: as §1

[4] = system: ECHCG; test: Pre-emergence herbicidal action against ECHCG; assay type: in vivo, Echinochloa crus-galli; details: 320 g/ha, scored visually after 3 weeks vs untreated controls
Procedure, shortened: as §1

[5] = system: LOLRI; test: Pre-emergence herbicidal action against LOLRI (Table 8, titled post-emergence at 320 g/ha); assay type: in vivo, Lolium rigidum; details: table stands in the pre-emergence section
Procedure, shortened: as §1

[6] = system: SETVI; test: Pre-emergence herbicidal action against SETVI; assay type: in vivo, Setaria viridis; details: 320 g/ha, scored visually after 3 weeks vs untreated controls
Procedure, shortened: as §1

[7] = system: ABUTH; test: Pre-emergence herbicidal action against ABUTH; assay type: in vivo, Abutylon threophrasti; details: 320 g/ha
Procedure, shortened: as §1

[8] = system: AMARE; test: Pre-emergence herbicidal action against AMARE; assay type: in vivo, Amaranthus retroflexus; details: 320 g/ha
Procedure, shortened: as §1

[9] = system: MATIN; test: Pre-emergence herbicidal action against MATIN; assay type: in vivo; details: 320 g/ha
Procedure, shortened: as §1

[10] = system: POLCO; test: Pre-emergence herbicidal action against POLCO; assay type: in vivo, Polygonum convolvulus; details: 320 g/ha
Procedure, shortened: as §1

[11] = system: VIOTR; test: Pre-emergence herbicidal action against VIOTR; assay type: in vivo, Viola tricolor; details: 320 g/ha
Procedure, shortened: as §1

[12] = system: VERPE; test: Pre-emergence herbicidal action against VERPE; assay type: in vivo, Veronica persica; details: 320 g/ha
Procedure, shortened: as §1

[13] = system: ALOMY; test: Post-emergence herbicidal action against ALOMY; assay type: in vivo, Alopecurus myosuroides; details: 80 g/ha, visual assessment after about 3 weeks
Procedure, shortened: (§2)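 Herbicidal action is rated visually in percent against untreated controls, where 100% means dead plants and 0% means no difference. Ratings come about 3 weeks after foliar spraying of one-leaf-stage plants with aqueous WP or EC preparations plus 0.2% wetting agent at 600 to 800 l/ha.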

[14] = system: AVEFA; test: Post-emergence herbicidal action against AVEFA; assay type: in vivo, Avena fatua; details: 80 g/ha, visual assessment after about 3 weeks
Procedure, shortened: as §2

[15] = system: DIGSA; test: Post-emergence herbicidal action against DIGSA; assay type: in vivo, Digitaria sanguinalis; details: 80 g/ha, visual assessment about 3 weeks after treatment vs untreated controls
Procedure, shortened: as §2

[16] = system: ECHCG; test: Post-emergence herbicidal action against ECHCG; assay type: in vivo, Echinochloa crus-galli; details: 80 g/ha, visual assessment about 3 weeks after treatment vs untreated controls
Procedure, shortened: as §2

[17] = system: LOLRI; test: Post-emergence herbicidal action against LOLRI; assay type: in vivo, Lolium rigidum; details: 80 g/ha, visual assessment about 3 weeks after treatment vs untreated controls
Procedure, shortened: as §2

[18] = system: SETVI; test: Post-emergence herbicidal action against SETVI; assay type: in vivo, Setaria viridis; details: 80 g/ha, visual assessment about 3 weeks after treatment vs untreated controls
Procedure, shortened: as §2

[19] = system: VERPE; test: Post-emergence herbicidal action against VERPE; assay type: in vivo, Veronica persica; details: 80 g/ha, visual assessment about 3 weeks after treatment vs untreated controls
Description: (§3) Seeds of monocotyledonous and dicotyledonous weed and crop plants are laid out in sandy loam soil in wood-fiber pots, covered with soil and cultivated in a greenhouse under good growth conditions. 2 to 3 weeks after sowing, the test plants are treated at the one-leaf stage. The compounds of the invention, formulated in the form of wettable powders (WP) or as emulsion concentrates (EC), are then sprayed onto the green parts of the plants as aqueous suspension or emulsion at a water application rate equating to 600 to 800 l/ha with addition of 0.2% wetting agent. After the test plants have been left to stand in the greenhouse under optimal growth conditions for about 3 weeks, the action of the preparations is assessed visually in comparison to untreated controls (herbicidal action in percent (%): 100% activity=the plants have died, 0% activity=like control plants).

[20] = system: AMARE; test: Post-emergence herbicidal action against AMARE; assay type: in vivo, Amaranthus retroflexus; details: 80 g/ha, visual assessment about 3 weeks after treatment vs untreated controls
Description: as §3

[21] = system: ABUTH; test: Post-emergence herbicidal action against ABUTH; assay type: in vivo, Abutylon threophrasti; details: 80 g/ha, visual assessment about 3 weeks after treatment vs untreated controls
Procedure, shortened: as §2

SMILES: CC#Cc1cc(C)c(C2=C(OC(=O)OCC)C3(CCC(COCC)C3)NC2=O)c(Cl)c1 (stereo not shown) [Example P-28]
- Pre-emergence action against ALOMY in % [1]: 100%
- Pre-emergence action against AVEFA in % [2]: 100%
- Pre-emergence action against DIGSA in % [3]: 100%
- Pre-emergence action against ECHCG in % [4]: 100%
- Pre-emergence herbicidal action against LOLRI in % [5]: 100%
- Pre-emergence action against SETVI in % [6]: 100%
- Pre-emergence action against ABUTH in % [7]: 90%
- Pre-emergence action against AMARE in % [8]: 100%
- Pre-emergence action against MATIN in % [9]: 90%
- Pre-emergence action against POLCO in % [10]: 80%
- Pre-emergence action against VIOTR in % [11]: 100%
- Pre-emergence action against VERPE in % [12]: 100%
- Post-emergence action against ALOMY in % [13]: 100%
- Post-emergence action against AVEFA in % [14]: 90%
- Post-emergence action against DIGSA in % [15]: 100%
- Post-emergence action against ECHCG in % [16]: 100%
- Post-emergence action against LOLRI in % [17]: 100%
- Post-emergence action against SETVI in % [18]: 100%
- Post-emergence action against VERPE in % [19]: 80%

SMILES: CC#Cc1cc(C)c(C2=C(OC(=O)OCC)C3(CCC(COC)C3)NC2=O)c(Br)c1 (stereo not shown) [Example P-31]
- Pre-emergence action against ALOMY in % [1]: 100%
- Pre-emergence action against AVEFA in % [2]: 100%
- Pre-emergence action against DIGSA in % [3]: 100%
- Pre-emergence action against ECHCG in % [4]: 100%
- Pre-emergence herbicidal action against LOLRI in % [5]: 100%
- Pre-emergence action against SETVI in % [6]: 100%
- Pre-emergence action against ABUTH in % [7]: 90%
- Pre-emergence action against AMARE in % [8]: 100%
- Pre-emergence action against POLCO in % [10]: 90%
- Pre-emergence action against VIOTR in % [11]: 100%
- Pre-emergence action against VERPE in % [12]: 90%
- Post-emergence action against ALOMY in % [13]: 90%
- Post-emergence action against AVEFA in % [14]: 100%
- Post-emergence action against DIGSA in % [15]: 100%
- Post-emergence action against ECHCG in % [16]: 100%
- Post-emergence action against LOLRI in % [17]: 100%
- Post-emergence action against SETVI in % [18]: 100%
- Post-emergence action against AMARE in % [20]: 80%

SMILES: CC#Cc1cc(C)c(C2=C(OC(=O)OCC)C3(CCC(COCC)C3)NC2=O)c(F)c1 (stereo not shown) [Example P-54]
- Pre-emergence action against ALOMY in % [1]: 100%
- Pre-emergence action against AVEFA in % [2]: 90%
- Pre-emergence action against DIGSA in % [3]: 100%
- Pre-emergence action against ECHCG in % [4]: 100%
- Pre-emergence herbicidal action against LOLRI in % [5]: 100%
- Pre-emergence action against SETVI in % [6]: 100%
- Pre-emergence action against AMARE in % [8]: 100%
- Pre-emergence action against POLCO in % [10]: 80%
- Pre-emergence action against VIOTR in % [11]: 100%
- Pre-emergence action against VERPE in % [12]: 80%
- Post-emergence action against ALOMY in % [13]: 100%
- Post-emergence action against AVEFA in % [14]: 100%
- Post-emergence action against DIGSA in % [15]: 100%
- Post-emergence action against ECHCG in % [16]: 100%
- Post-emergence action against LOLRI in % [17]: 100%
- Post-emergence action against ABUTH in % [21]: 80%
- Post-emergence action against VERPE in % [19]: 80%

SMILES: CC#Cc1cc(C)c(C2=C(OC(=O)C(C)C)C3(CCC(COC)C3)NC2=O)c(F)c1 (stereo not shown) [Example P-58]
- Pre-emergence action against ALOMY in % [1]: 100%
- Pre-emergence action against AVEFA in % [2]: 90%
- Pre-emergence action against DIGSA in % [3]: 100%
- Pre-emergence action against ECHCG in % [4]: 100%
- Pre-emergence herbicidal action against LOLRI in % [5]: 100%
- Pre-emergence action against SETVI in % [6]: 100%
- Pre-emergence action against ABUTH in % [7]: 80%
- Pre-emergence action against AMARE in % [8]: 90%
- Pre-emergence action against VIOTR in % [11]: 100%
- Post-emergence action against ALOMY in % [13]: 100%
- Post-emergence action against AVEFA in % [14]: 90%
- Post-emergence action against DIGSA in % [15]: 100%
- Post-emergence action against ECHCG in % [16]: 100%
- Post-emergence action against LOLRI in % [17]: 100%
- Post-emergence action against ABUTH in % [21]: 80%
- Post-emergence action against AMARE in % [20]: 80%

SMILES: C=CCOCC1CCC2(C1)NC(=O)C(c1c(C)cc(C#CC)cc1Br)=C2OC(=O)OCC (stereo not shown) [Example P-88]
- Pre-emergence action against ALOMY in % [1]: 100%
- Pre-emergence action against AVEFA in % [2]: 90%
- Pre-emergence action against DIGSA in % [3]: 100%
- Pre-emergence action against ECHCG in % [4]: 100%
- Pre-emergence herbicidal action against LOLRI in % [5]: 100%
- Pre-emergence action against SETVI in % [6]: 100%
- Pre-emergence action against ABUTH in % [7]: 80%
- Pre-emergence action against VIOTR in % [11]: 100%
- Pre-emergence action against VERPE in % [12]: 100%
- Post-emergence action against ALOMY in % [13]: 100%
- Post-emergence action against DIGSA in % [15]: 90%
- Post-emergence action against ECHCG in % [16]: 100%
- Post-emergence action against LOLRI in % [17]: 100%
- Post-emergence action against SETVI in % [18]: 100%
- Post-emergence action against AMARE in % [20]: 80%
